In test [1] the target is T1, ketol-isomerase (Candida albicans, UniProt P53704).
T1 construct: ketol-isomerase activity in crude cell extract of Candida albicans ATCC10261 yeast-like cells; host or cells: Candida albicans ATCC 10261 crude cell extract
The following applies: C. albicans strain ATCC No. 10261 crude cell extracts; Milewski et al., J. Biol. Chem., 274:4000-4008 [1999]; read-out: IC50, inhibition of ketol-isomerase activity; cited from earlier work.

In test [2] the target is ketol-isomerase (Aspergillus fumigatus, UniProt E9R5E2). The test is described as follows: nitro BT ketol-isomerase inhibition assay with crude A. fumigatus cell extract. Type of test: biochemical. Particulars: UDP-GlcNAc 0 to 10 mM. The procedure: Briefly, in this experiment, a series of ketol-isomerase reactions were analyzed in parallel, wherein each reaction mixture contained Fru-6-P, glutamine, and crude A. fumigatus cell extract (as described in Example 3). In addition, reactions also contained various concentrations of UDP-GlcNAc, ranging from 0 to 10 mM. Reactions were incubated at 37° C. for 60 minutes, after which time the ketol-isomerase reactions were terminated by heating at 70° C. for 15 min. However, the ketol-isomerase reaction can also be terminated by boiling for 5 minutes. In addition, the ketol-isomerase reaction can be clarified following the inactivation step by centrifugation or filtration.
Sequence of ketol-isomerase (Aspergillus fumigatus, UniProt E9R5E2) (E9R5E2 entry or part of it): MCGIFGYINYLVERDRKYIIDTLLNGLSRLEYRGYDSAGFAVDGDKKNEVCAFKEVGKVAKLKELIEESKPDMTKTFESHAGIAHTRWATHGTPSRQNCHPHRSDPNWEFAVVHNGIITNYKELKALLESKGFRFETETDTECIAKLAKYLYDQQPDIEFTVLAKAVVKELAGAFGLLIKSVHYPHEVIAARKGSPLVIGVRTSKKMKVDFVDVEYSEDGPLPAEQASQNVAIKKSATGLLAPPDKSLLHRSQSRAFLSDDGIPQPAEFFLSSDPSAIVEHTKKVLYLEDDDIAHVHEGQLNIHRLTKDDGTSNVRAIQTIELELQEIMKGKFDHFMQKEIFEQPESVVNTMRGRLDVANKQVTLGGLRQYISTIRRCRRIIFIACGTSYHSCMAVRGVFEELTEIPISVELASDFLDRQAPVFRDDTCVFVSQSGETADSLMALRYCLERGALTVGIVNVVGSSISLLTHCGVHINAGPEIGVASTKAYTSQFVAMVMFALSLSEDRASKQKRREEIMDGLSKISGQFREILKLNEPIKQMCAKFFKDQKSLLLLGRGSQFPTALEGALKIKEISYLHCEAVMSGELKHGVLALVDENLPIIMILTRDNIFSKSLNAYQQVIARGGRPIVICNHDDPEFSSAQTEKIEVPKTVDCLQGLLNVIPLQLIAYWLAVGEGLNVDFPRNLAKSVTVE
Following arrest of the ketol-isomerase reaction, the necessary reagents for the nitro BT reaction were added to each reaction mixture, including glutamate dehydrogenase enzyme and molar excesses of β-NAD, PMS, and nitro BT. After incubation at 37° C. for 90 minutes, the color development was quantitated by measurement of OD585 nm. […]
In this experiment, 50 μL aliquots of a ketol-isomerase reaction mixture containing 10 mM Fru-6-P, 10 mM Gln, 0.3 mg/mL crude A. fumigatus extract, and various concentrations of UDP-GlcNAc were incubated at 37° C. for 60 minutes. […] After incubation at 37° C. for 90 minutes, the color development was quantitated by OD585 nm.

Results on one molecule are retold here after patent US6730495B2, “Methods for the identification of antimicrobial compounds” (Mycologics, Inc., priority 2001, dated 2004).

The structures appear in SMILES notation.

T1 sequence (P53704 2-713): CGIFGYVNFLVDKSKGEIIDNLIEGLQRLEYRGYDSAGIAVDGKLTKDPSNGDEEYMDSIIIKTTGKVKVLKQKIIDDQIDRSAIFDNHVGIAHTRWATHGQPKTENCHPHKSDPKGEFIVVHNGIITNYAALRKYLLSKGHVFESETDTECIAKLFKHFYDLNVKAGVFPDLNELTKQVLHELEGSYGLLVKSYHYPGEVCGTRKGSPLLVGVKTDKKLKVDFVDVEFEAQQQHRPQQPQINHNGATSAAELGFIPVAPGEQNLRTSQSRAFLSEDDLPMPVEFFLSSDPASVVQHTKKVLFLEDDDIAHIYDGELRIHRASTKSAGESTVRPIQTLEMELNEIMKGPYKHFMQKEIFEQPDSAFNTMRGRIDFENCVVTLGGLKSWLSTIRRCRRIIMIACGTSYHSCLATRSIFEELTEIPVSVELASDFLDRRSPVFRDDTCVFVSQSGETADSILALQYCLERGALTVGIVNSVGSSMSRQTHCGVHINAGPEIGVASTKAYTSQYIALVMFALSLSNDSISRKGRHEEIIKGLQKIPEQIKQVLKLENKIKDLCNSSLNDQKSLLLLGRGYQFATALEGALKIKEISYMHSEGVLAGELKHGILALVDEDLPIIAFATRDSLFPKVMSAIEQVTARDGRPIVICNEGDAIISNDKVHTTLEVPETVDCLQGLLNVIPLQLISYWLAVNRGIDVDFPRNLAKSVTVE

For `CC(=O)N[C@H]1[C@@H](OP(=O)(O)OP(=O)(O)OC[C@H]2O[C@@H](n3ccc(=O)[nH]c3=O)[C@H](O)[C@@H]2O)O[C@H](CO)[C@@H](O)[C@@H]1O` [UDP-GlcNAc, UDP-N-acetylglucosamine], the IC50 (usually the concentration that inhibits the measured activity by half) at ketol-isomerase [1] was 690 µM. In addition, the “inhibition of ketol-isomerase activity in A. fumigatus crude extract (FIG. 5)” value against ketol-isomerase [2] is given as “inhibited by UDP-GlcNAc in a dose-dependent manner”.
